Measurements taken from patent US5459270A, “Azacyclic compounds, processes for their preparation and pharmaceutical compositions containing them” (Merck Sharp & Dohme Limited, priority 1991, dated 1995).
Where “and” joins values, the source holds several entries; their conditions need not be identical. Equal entries are not always repeated. Structures can show the parent of a compound that is named as a salt. Where two headings read alike, the source gives them in different places.

Biological target: human neurokinin-1-receptor (NK1R) (Homo sapiens, UniProt P25103)
Sequence (P25103 whole entry): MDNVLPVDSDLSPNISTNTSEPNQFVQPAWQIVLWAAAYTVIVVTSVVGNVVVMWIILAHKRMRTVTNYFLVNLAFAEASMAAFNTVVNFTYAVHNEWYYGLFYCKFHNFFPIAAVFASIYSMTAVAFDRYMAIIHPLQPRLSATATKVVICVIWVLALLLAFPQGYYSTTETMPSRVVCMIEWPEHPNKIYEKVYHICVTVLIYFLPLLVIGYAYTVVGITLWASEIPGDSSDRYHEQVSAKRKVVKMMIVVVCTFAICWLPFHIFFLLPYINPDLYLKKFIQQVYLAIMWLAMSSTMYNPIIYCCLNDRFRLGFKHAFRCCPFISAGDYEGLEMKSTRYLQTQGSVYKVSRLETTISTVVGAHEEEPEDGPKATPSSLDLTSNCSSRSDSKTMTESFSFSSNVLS
Test: biochemical
Format: binding
Conditions: for IC50: displacement of 125I-substance P, read-out: IC50 @ NKIR; for inhibition at 1 µM / inhibition at 0.3 µM: 1 h; for inhibition at 1 µM: read-out: % @ 1 μM (in column IC50 @ NKIR); for inhibition at 0.3 µM: read-out: % @ 300 nM (in column IC50 @ NKIR)
Experimental: To express the cloned human neurokinin-1-receptor (NK1R) transiently in COS, the cDNA for the human NK1R was cloned into the expression vector pCDM9 which was derived from pCDM8 (INVITROGEN) by inserting the ampicillin resistance gene (nucleotide 1973 to 2964 from BLUESCRIPT SK+ (trademark, […], La Jolla, Calif., USA)) into the Sac II site. Transfection of 20 ug of the plasmid DNA into 10 million COS cells was achieved by electroporation in 800 μl of transfection buffer (135 mM NaCl, 1.2 mM CaCl2, 1.2 mM MgCl2, 2.4 mM K2 HPO4, 0.6 mM KH2 PO4, 10 mM glucose, 10 mM N-2-hydroxyethyl-piperazine-N'-2-ethane sulphonic acid (HEPES) pH 7.4) at 260 V and 950 μF using the IBI GENEZAPPER (trademark IBI, New Haven, Conn., USA). The cells were incubated in 10% fetal calf serum, 2 mM glutamine, 100 U/ml penicillin-streptomycin, and 90% DMEM media (GIBCO, Grand Island, N.Y., USA) in 5% CO2 at 37° C. for three days before the binding assay.
To establish a stable cell line expressing cloned human NK1R, the cDNA was subcloned into the vector pRcCMV (INVITROGEN). Transfection of 20 μg of the plasmid DNA into CHO cells was achieved by electroporation in 800 μl of transfection buffer supplemented with 0.625 mg/ml Herring sperm DNA at 300 V and 950 μF using the IBI GENEZAPPER (IBI). The transfected cells were incubated in CHO media [10% fetal calf serum, 100 U/ml penicillin-streptomycin, 2 mM glutamine, 1/500 hypoxanthine-thymidine (ATCC), 90% IMDM media (JRH BIOSCIENCES, Lenexa, Kans., USA), 0.7 mg/ml G418 (GIBCO)] in 5% CO2 at 37° C. until colonies were visible. Each colony was separated and propagated. The cell clone with the highest number of human NK1R was selected for subsequent applications such as drug screening.
The binding assay of human NK1R expressed in either COS or CHO cells is based on the use of ^125 I-substance P (^125 I-SP, from DU PONT, Boston, Mass.) as a radioactively labeled ligand which competes with unlabeled substance P or any other ligand for binding to the human NK1R. […] The tubes were incubated at 4° C. or at room temperature for 1 hour with gentle shaking. The bound radioactivity was separated from unbound radioactivity by GF/C filter (BRANDEL, Gaithersburg, Md.) which was pre-wetted with 0.1% polyethylenimine. The filter was washed with 3 ml of wash buffer (50 mM Tris pH 7.5, 5 mM MnCl2, 50 mM NaCl) three times and its radioactivity was determined by gamma counter.

[1] = 300 nM, human NK1R in COS or CHO cells, 125I-substance P

| IC50 (human NK1R in COS or CHO cells) | Structure (SMILES) | other results |
| --- | --- | --- |
| 300 nM | FC(F)(F)c1cc(CO[C@@H]2CCCN[C@H]2c2ccccc2)cc(C(F)(F)F)c1 (relative stereo) [Example 13, trans-3-((3,5-Bis(trifluoromethyl)phenyl)methyloxy)-2-phenyl piperidine hydrochloride salt] |  |
| 40 nM | FC(F)(F)c1cc(CO[C@H]2CCCN[C@H]2c2ccccc2Cl)cc(C(F)(F)F)c1 (relative stereo) [Example 21, cis-3-((3,5-Bis(trifluoromethyl)phenyl)methyloxy)-2-(2-chlorophenyl)piperidine] |  |
| 5 nM | FC(F)(F)c1cc(CO[C@H]2CCCN[C@H]2c2cccc(Cl)c2)cc(C(F)(F)F)c1 (relative stereo) [Example 22, cis-3-((3,5-Bis(trifluoromethyl)phenyl)methyloxy)-2-(3-chlorophenyl)piperidine hydrochloride salt] |  |
| 35 nM | FC(F)(F)c1cc(CO[C@H]2CCCN[C@H]2c2ccc(Cl)cc2)cc(C(F)(F)F)c1 (relative stereo) [Example 23, cis-3-((3,5-Bis(trifluoromethyl)phenyl)methyloxy)-2-(4-chlorophenyl)piperidine hydrochloride salt] |  |
| 15 nM | Cc1ccc([C@@H]2NCCC[C@@H]2OCc2cc(C(F)(F)F)cc(C(F)(F)F)c2)cc1 (relative stereo) [Example 24, cis-3-(3,5,-Bis(trifluoromethyl)phenyl)methyloxy)-2-(4-methylphenyl)piperidine hydrochloride salt] |  |
| 160 nM | COc1ccc(CN2C(=O)CC[C@H](OCc3cc(C(F)(F)F)cc(C(F)(F)F)c3)[C@@H]2c2ccccc2)cc1 (relative stereo) [Example 27, cis-3-((3,5-Bis(trifluoromethyl)phenyl)methyloxy)-6-keto1-(4-methoxybenzyl)-2-phenyl piperidine] |  |
| 15 nM | O=C1CC[C@H](OCc2cc(C(F)(F)F)cc(C(F)(F)F)c2)[C@H](c2ccccc2)N1 (relative stereo) [Example 28, cis-3-((3,5-Bis(trifluoromethyl)phenyl)methyloxy)-6-keto-2-phenyl piperidine] |  |
| 40 nM | COC(=O)CCN1CCC[C@H](OCc2cc(C(F)(F)F)cc(C(F)(F)F)c2)[C@@H]1c1ccccc1 (relative stereo) [Example 29, cis-3-((3,5-Bis(trifluoromethyl)phenyl)methyloxy)-1-(2-carbomethoxy)ethyl-2-phenylpiperidine] |  |
| 100 nM | COC(=O)CCCN1CCC[C@H](OCc2cc(C(F)(F)F)cc(C(F)(F)F)c2)[C@@H]1c1ccccc1 (relative stereo) [Example 31, cis-3-((3,5Bis(trifluoromethyl)phenyl)methyloxy)-1-(3-carbomethoxy)propyl-2-phenylpiperidine] |  |
| 150 nM | NC(=O)C(=O)N1CCC[C@H](OCc2cc(C(F)(F)F)cc(C(F)(F)F)c2)[C@@H]1c1ccccc1 (relative stereo) [Example 38] |  |
| 0.9 nM | NC(CN1CCC[C@H](OCc2cc(C(F)(F)F)cc(C(F)(F)F)c2)[C@@H]1c1ccccc1)=NO (relative stereo) [Example 39] |  |
| 15 nM | N#CCN1CCC[C@H](OCc2cc(C(F)(F)F)cc(C(F)(F)F)c2)[C@@H]1c1ccccc1 (relative stereo) [Example 40, cis-3 ((3,5Bis(trifluoromethyl)phenyl)methyloxy)-1-cyanomethyl-2-phenylpiperidinium hydrochloride] |  |
| 0.6 nM | COC(=O)C(C)N1CCCC(OCc2cc(C(F)(F)F)cc(C(F)(F)F)c2)C1c1ccccc1 (single isomer, unassigned) [Example 18] |  |
| 0.9 nM | CC(C(N)=O)N1CCC[C@H](OCc2cc(C(F)(F)F)cc(C(F)(F)F)c2)[C@@H]1c1ccccc1 (single isomer, unassigned) [Example 19, hydrochloride] |  |
| 1.4 nM | CCN(CC)C(=O)CN1CCCC(OCc2cc(C(F)(F)F)cc(C(F)(F)F)c2)C1c1ccccc1 (single isomer, unassigned) [Example 43, cis-3-((3,5-Bis(trifluoromethyl)phenyl)methyloxy-1-(N,N-diethylcarboxamido)methyl-2-phenylpiperidinium hydrochloride] |  |

Further lines, the compound ahead of its results:

| Structure (SMILES) | IC50 (human NK1R in COS or CHO cells) | other results |
| --- | --- | --- |
| Cc1cc(C)cc(CO[C@H]2CCN(C)[C@H]2C(c2ccccc2)c2ccccc2)c1 (relative stereo) [Example 1, cis 2-(Diphenylmethyl)-3-(3,5-dimethylbenzyloxy)-1-methylpyrrolidine] | 14 nM |  |
| Cc1cc(C)cc(CO[C@H]2CCCN[C@H]2c2ccccc2)c1 (relative stereo) [Example 2, cis-3-((3,5-Dimethylphenyl)methyloxy)-2-phenylpiperidine hydrochloride salt] | < 3 nM |  |
| FC(F)(F)c1cc(CO[C@H]2CCCN[C@H]2c2ccccc2)cc(C(F)(F)F)c1 (relative stereo) [Example 4, cis-3-((3,5-Bis(trifluoromethyl)phenyl)methyloxy)-2-phenylpiperidine hydrochloride salt] | 2 nM and 1.4 nM |  |
| Cc1cc(C)cc(CO[C@@H]2CCCN[C@H]2c2ccccc2)c1 (relative stereo) [Example 12, trans-((3.5-Dimethylphenyl)methyloxy)-2-phenyl piperidine hydrochloride salt] |  | inhibition at 1 µM (1 μM, human NK1R in COS or CHO cells, 125I-substance P): 46% |
| FC(F)(F)c1cc(CO[C@H]2CCCN[C@H]2c2cccs2)cc(C(F)(F)F)c1 (relative stereo) [Example 25, cis-3-((3,5-Bis(trifluoromethyl)phenyl)methyloxy)-2-thienyl piperidine hydrochloride salt] | 70 nM |  |
| FC(F)(F)c1cc(CO[C@H]2CCCN[C@H]2c2ccccn2)cc(C(F)(F)F)c1 (relative stereo) [Example 26, cis-3-((3,5-Bis(trifluoromethyl)phenyl)methyloxy)-2-pyridyl piperidine dihydrochloride salt] |  | inhibition at 0.3 µM [1]: 41% |
| c1ccc(CO[C@H]2CCCN[C@H]2c2ccccc2)cc1 (relative stereo) [Example 34, cis-2-Phenyl-3-(phenylmethyloxy)piperidine oxalate salt] |  | inhibition at 1 µM: 53% |
| CC(C)(C)c1cc(CO[C@H]2CCCN[C@H]2c2ccccc2)cc(C(C)(C)C)c1 (relative stereo) [Example 35, cis-3-((3,5.-Di-t-butylphenyl)methyloxy)-2-phenylpiperidine oxalate salt] | 100 nM |  |
| FC(F)(F)c1cc(CO[C@H]2CCCN(Cc3cc(C(F)(F)F)cc(C(F)(F)F)c3)[C@H]2c2ccccc2)cc(C(F)(F)F)c1 (relative stereo) [Example 42] |  | inhibition at 0.3 µM [1]: 45% |
| COc1ccc([N+](=O)[O-])cc1CO[C@H]1CCCN[C@H]1c1ccccc1 (relative stereo) [Example 45, cis-3-((2-Methoxy-5-nitrophenyl)methyloxy)-2-phenylpiperidine hydrochloride salt] |  | inhibition at 0.3 µM: 42% |
| Clc1cc(Cl)cc(CO[C@H]2CCCN[C@H]2c2ccccc2)c1 (relative stereo) [Example 47, cis-3-((3,5-Dichlorophenyl)methyloxy)-2-phenylpiperidine hydrochloride salt] | 2 nM |  |
| Cc1cc(C)cc(CO[C@H]2CN(C)[C@H]2c2ccccc2)c1 (relative stereo) [Example 51, cis-3-((3,5-Dimethylphenyl)methyloxy)-1-methyl-2-phenyl azetidine oxalate salt] |  | inhibition at 1 µM: 40% |
| N#Cc1cccc(CO[C@H]2CCCN[C@H]2c2ccccc2)c1 (relative stereo) [Example 53, cis-3((3-cyanophenyl)methyloxy)-2-phenylpiperidine hydrochloride salt] |  | inhibition at 0.3 µM: 40% |
| FC(F)(F)c1cc(CO[C@H]2CCCN[C@H]2c2ccccc2)cc(C(F)(F)F)c1 [Example 5, (+)-cis-3((3,5-Bis(trifluoromethyl)phenyl)methyloxy)-2-phenylpiperidine hydrochloride salt] | 1 nM |  |
